Read-outs that look alike come from different tables or passages of the source.
Tests used:
[1] = system: voltage-dependent Na+ channels in excitable membranes; conditions: cited from earlier work; for Opening of Na+ channels: Catterall; for Effect on kinetics of activation and inactivation of Na+ channels: electrophysiology, Khodorov et al.; for Effect on kinetics of activation and inactivation of Na+ channels / Use dependence of activator effects: ref Ulbricht, 1969; for Use dependence of activator effects: intact nerve preparations, Albuquerque et al., Bartels-Bernal et al., 1977, Revenko
[2] = system: Na+ channels in rat brain synaptosomes; assay: Synaptosome membrane potential; type: cell-based
[3] = system: Na+ channels in rat brain synaptosomes; type: cell-based
[4] = system: Na+ channels in synaptosomes; conditions: cited from earlier work; for Synaptosome depolarization: ref VER: Goldring and Blaustein, BTX: Krueger and Blaustein, 1978
[5] = system: Na+ channels, neuroblastoma cells; conditions: ref Catterall (1977 b); cited from earlier work
[6] = ref Narahashi and Seyama, 1974, 1977 b
[7] = ref Albuquerque et al., 1973, 1975

Molecule: Grayanotoxin
- Opening of Na+ channels [1, 6]: open Na + channels

Molecule: batrachotoxin [BTX]
- Fluorescence increase in low-Na medium ([2]; 30 μM BTX, 140 Ch + 5 Na + 5 K, data not shown): same amount as did increasing the external K concentration from 5 to 8 mM
- Time to complete depolarizing effect ([2]; data not shown): up to 5 min
- Maximal depolarization, ΔF (% of 150 mM K+) ([2]; maximally effective concentration of BTX, no LqTX): 100%
- Effect of BTX >0.3 μM in presence of LqTX ([3]; 0.1 μM LqTX): slightly inhibitory
- BTX-stimulated 22Na influx during the second s of incubation ([3]; 10 μM BTX): slightly less than that during the first s
- Na+ concentration up to which BTX-stimulated uptake is proportional to Na+ ([3]; 10 μM BTX, 2 s uptake, 2.5-30 mM Na+): up to 5 mM
- Na+ uptake rate ([3]; 10 μM BTX, 5 min at 30°C, 5 mM Na+): ~ 1 nmol s-1 mg-1
- Maximal Na+ uptake by BTX without vs with LqTX ([3]; each of three experiments): slightly greater in the absence than in the presence of LqTX
- Time to isotopic equilibrium ([3]; presence of 10 μM BTX, 30°C): about 5 s
- Effect on kinetics of activation and inactivation of Na+ channels [1]; 1975: alter the kinetic properties of the rapid, voltage-sensitive activation and inactivation of Na + channels
- Use dependence of activator effects [1]; 1973: use dependent
- Opening of Na+ channels [1, 7]: open TTX-sensitive Na + channels
- Synaptosome depolarization [4]; 1975: induced synaptosome depolarization

Molecule: COc1ccc(C(=O)O[C@H]2CC[C@@]3(C)[C@@H]4CC[C@H]5[C@]6(O)C[C@H](O)[C@@]7(O)[C@@H](CN8C[C@@H](C)CC[C@H]8[C@@]7(C)O)[C@]6(O)C[C@@]53O[C@]24O)cc1OC [VER, veratridine]
- Time to complete depolarizing effect ([2]; data not shown): up to 5 min
- Depolarization relative to maximally effective BTX or 150 mM K+ (ΔF = 100%) ([2]; highest concentration tested, 300 μM VER, no LqTX): 50-60%
- Maximal effect of VER on Na+ uptake with LqTX ([3]; 0.1 μM LqTX): increased in the presence of LqTX to the same level observed in the presence of 10 ~M BTX
- Na+ uptake at maximally effective VER with AxTX ([3]; 1 μM AxTX): increased in the presence of AxTX
- Preference of binding to open over nonopen states [5]: ~ 600 times
- Effect on kinetics of activation and inactivation of Na+ channels [1]; 1975: alter the kinetic properties of the rapid, voltage-sensitive activation and inactivation of Na + channels
- Use dependence of activator effects [1]; 1973: use dependent
- Opening of Na+ channels [1, 7]: open TTX-sensitive Na + channels
- Release of neurotransmitters from synaptosomes ([4]; ref Blaustein, 1975, Cotman et al., 1976): VER-stimu- lated release of neurotransmitters
- Ca2+ uptake into synaptosomes ([4]; ref Blaustein, 1975, Nachshen and Blaustein, 1979): VER-stimulated Ca2+ uptake
- Uptake of Na+ into synaptosomes ([4]; ref Li and White (1977), Matthews et al. (1979)): VER-stimulated, TTX-sensitive uptake of Na + into synaptosomes
- Synaptosome depolarization [4]; 1975: induced synaptosome depolarization

Molecule: COC(=O)[C@@H]1[C@H]2C[C@H]3c4[nH]c5ccccc5c4CCN3C[C@@H]2CC[C@@H]1O [yohimbine]
- Antagonism of Na+ channel openers ([1]; ref Huang et al., 1978): competitive antagonist of these agents

Molecule: anthopleurin-A [AxTX]
- Potentiation of BTX by AxTX ([3]; 1 μM AxTX): potentiated the effects of BTX without itself greatly increasing Na + uptake
- Potentiation of VER by AxTX ([3]; 1 μM AxTX): potentiated the effects of VER
- Effect of AxTX alone on Na+ uptake ([3]; absence of VER or BTX): small increase in Na + uptake

Molecule: CCN1C[C@]2(COC)[C@H](O)C[C@H](OC)[C@@]34[C@@H]5C[C@@]6(O)[C@H](OC(=O)c7ccccc7)[C@@H]5[C@@](OC(C)=O)([C@@H]([C@H](OC)[C@H]23)[C@@H]14)[C@@H](O)[C@@H]6OC [aconitine]
- Opening of Na+ channels [1, 6]: open Na + channels
